Source: article PMC7734235 (Computational and Structural Biotechnology Journal, 2020)

Biological target: T1, Rab5 (Homo sapiens, UniProt P20339)
T1 sequence (P20339 1-215): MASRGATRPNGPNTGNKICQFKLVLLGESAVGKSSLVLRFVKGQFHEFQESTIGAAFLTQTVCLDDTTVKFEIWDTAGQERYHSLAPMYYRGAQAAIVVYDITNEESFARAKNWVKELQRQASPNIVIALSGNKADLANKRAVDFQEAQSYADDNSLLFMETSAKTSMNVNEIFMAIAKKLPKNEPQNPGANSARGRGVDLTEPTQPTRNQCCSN
Assay: intrinsic fluorescence titration
Type: binding

## C=C1CC[C@@H]2[C@](C)(CO[C@@H]3O[C@H](CO)[C@@H](O)[C@H](O)[C@H]3O)CCC[C@@]2(C)[C@@H]1CCC1=CCOC1=O [NAP, Neoandrographolide]
  Kd: 350 ± 30 nM
